Reference: PMC6385203, “Mutations in the palm domain disrupt modulation of acid-sensing ion channel 1a currents by neuropeptides” (Scientific Reports, 2019)
“Also recorded” adds a separate entry of the source. Ends that are not written are not given here.

How the values were obtained:
ASIC1a E242C = test: Modification of Cys mutant by MTSET; assay type: cell-based, human; settings: 1 mM MTSET 3 min, pH dependence of activation and SSD, n=4-6
Method: (§1) Figure S2. Modification of Cys mutants by MTSET. To determine whether exposure to MTSET modified specific Cys mutants, we applied pH protocols that detect shifts in the pH dependence of activation and of steady-state desen sitization (SSD) to ASIC1a-e xpressing oocytes, before and after a 3-min exposure to 1mM MTSET. a, illustration of the experimental protocol at the example of the E97C mutant. The acidic solution was applied once every minute, except during the incubation with MTSET. b, ratio of current amplitudes obtained at pH6.5 and pH5 from the conditioning pH7.4, as a measure of the pH dependence of activation, before (open bars) and after MTSET expo sure (red bars). c, ratio of the current amplitude at pH5 from the conditioning pH7.15 / the current amplitude at pH5 obtained from the conditioning pH7.4, as an indication of the pH dependence of SSD, n=4-6. *, p<0.05; **, p<0.01; ***, p<0.001; ****, p<0.0001; different between control and MTSET condition, […]
(§2) WT ASIC1a3,4. If a functional property is changed after MTSET incubation and its washout, it is concluded that the engineered Cys residue has been modified by MTSET. This analysis […]
(§3) (1 picture or pasted object on this page, not shown here)

ASIC1a E97C = test: Modification of Cys mutant by MTSET; assay type: cell-based, human; settings: 1 mM MTSET 3 min, pH dependence of activation and SSD, n=4-6
Method: as §1, §2, §3

ASIC1a F302C = test: Modification of Cys mutant by MTSET; assay type: cell-based, human; settings: 1 mM MTSET 3 min, pH dependence of activation and SSD, n=4-6
Method: as §1, §2, §3

ASIC1a S240C = test: Modification of Cys mutant by MTSET; assay type: cell-based, human; settings: 1 mM MTSET 3 min, pH dependence of activation and SSD, n=4-6
Method: as §1, §2, §3

ASIC1a L280C = settings: L280C mutant; cited from earlier work
Excerpt: (§4) Based on in silico docking, mutagenesis and functional validation, our study points to the side cavities of the central vestibule as the most probable binding sites for the peptide FRRFa. […] The 40-amino acid peptide toxin PcTx1 binds into the acidic pocket and to the subunit interface ...

[1] = test system: ENaC/degenerin ion channel family; settings: cited from earlier work
Excerpt: (§5) FaNaC-like channels have been described in mollusks and Hydra[8]–[10], but not in mammals. Mammals express FMRFa-related peptides that exert their pharmacological actions mainly by binding to G protein-coupled receptors. Mammalian FMRFa-like peptides contain more than four residues. Since they ...

ASIC1a [2] = settings: cited from earlier work; for competition between functional effects: PcTx1 vs big dynorphin
Excerpt: as §4

[3] = test system: ASIC1- and ASIC3-containing channels; settings: FMRFa and related peptides; cited from earlier work
Excerpt: as §5

FaNaC = settings: molluscan FaNaC; cited from earlier work
Excerpt: as §5

ASIC1a [4] = settings: cited from earlier work
Method: Currently it is not known where in the ASICs the RFa peptides bind. […] Our docking studies predicted possible b ... || ASIC1a function was measured by two-electrode voltage-clamp after recombinant expression in Xenopus oocytes. The channels were activated by a pH5 stimulation solution from a conditioning solution of pH7.4. […] We measured the rate of FRRFa unbinding, as the disappearance of the sustained current after a 50-s incubation with 50 μM FRRFa, as 0.025 ± 0.005 s^−1 (n = 8, Fig. 2b).

C[N+](C)(C)CCSS(C)(=O)=O [MTSET, [2-(trimethylamonium)ethyl] methanethiosulfonate]
modification by MTSET (ASIC1a E242C): evidence for modification by MTSET; also recorded: exposure to MTSET changes the properties of the mutants E97C, S240C and E242C | modification by MTSET (ASIC1a E97C): evidence for modification by MTSET; also recorded: exposure to MTSET changes the properties of the mutants E97C, S240C and E242C | modification by MTSET (ASIC1a F302C): evidence for modification by MTSET | modification by MTSET (ASIC1a S240C): evidence for modification by MTSET; also recorded: exposure to MTSET changes the properties of the mutants E97C, S240C and E242C | effect of MTSET modification on sustained current fraction (ASIC1a L280C): strongly increases the sustained current fraction

N=C(N)NC(=O)c1nc(Cl)c(N)nc1N [amiloride]
inhibition of ENaC/degenerin channels [1]: inhibited by amiloride

PcTx1: 40-amino acid peptide toxin PcTx1 (EDCIPKWKGCVNRHGDCCEGLECWKRRRSFEVCVPKTPKT; ends and bridges not checked; cysteine pairing not given here; UniProt P60514 1-40, looked up)
competition between functional effects (ASIC1a [2]): a competition between the functional effects of PcTx1 and the peptide big dynorphin

Phe-Met-Arg-Phe-amide [FMRFa]
effects on ASIC desensitization, sustained current and SSD [3]: slow the desensitization time course of ASIC1- and ASIC3-containing channels and induce a sustained (non-desensitizing) current as well as an acidic shift in the SSD pH dependence of ASIC1a | channel activation (FaNaC): activated by the neuropeptide Phe-Met-Arg-Phe-amide (FMRFa) | requirement of pre-application (ASIC1a [4]): affect ASIC1a currents only when pre-applied with the conditioning solution at pH 7.4

big dynorphin: a remotely related Arg-rich 32-amino acid peptide
competition between functional effects (ASIC1a [2]): a competition between the functional effects of PcTx1 and the peptide big dynorphin | modulation of ASIC1a (ASIC1a [2]): modulates ASIC1a in a similar way as RFa peptides do
